Laboratory results published in US6509337B1, “Arylsulfonyl Hydroxamic Acid derivatives as MMP and TNF inhibitors” (Pfizer Inc., priority 1997, dated 2003).

- melting point: 151 to 154 °C (dec.)
SMILES: COc1ccc(S(=O)(=O)N2CC=CC(c3ccccc3)C2C(=O)NO)cc1 (stereo not shown) [Example 2, N-hydroxy-1-(4-methoxybenzenesulfonyl)-3-phenyl-1,2,3,6-tetrahydropyridine-2-carboxamide]
